Experimental data published in US20230270729A1, “USE OF N-[…] HAVING P2X4 RECEPTOR ANTAGONISTIC ACTIVITY FOR TREATING CERTIAN OCULAR DISORDERS” (Bayer Aktiengesellschaft, priority 2020, published 2023).

Tests used:
Assay type in all cases: in vivo, rat
[1] = Evaluation of pharmacokinetics after topical eye drops; details: rats, topical eye drops 1 mg/mL in castor oil over four to seven days, expected trough, n = 2; for Mean concentration of test compound, Back of the eye / Mean concentration of test compound, Cornea / Mean concentration of test compound, Lacrimal gland and duct / Mean concentration of test compound, Lens and humor: wet tissue weight
Experimental: Evaluation of Pharmacokinetics
To evaluate the pharmacokinetics of test substances in vivo, these test substances are dissolved in appropriate formulation vehicles (e.g. castor oil). The test substances are then administered to rats topically as eye drops over four to seven days. Administered doses range usually between 0.1 to 5 mg/mL. Blood samples and ocular tissue samples are taken at the time of expected trough concentration, i.e. just before the next dosing would have occurred. Blood samples are retrieved via exsanguination in vials containing appropriate anticoagulants, such as lithium heparinate or potassium EDTA. Plasma is generated from the blood via centrifugation. Eyes are enucleated and briefly washed in PBS to remove possible remains of the topical formulation. Eyes are dissected and tissues of interest, e.g. cornea, lacrimal gland and duct, lens and humor and back of the eye tissue, are collected separately. Ocular tissues are pooled per individual animal, diluted in appropriate amounts of 0.9% NaCl in water and homogenized using a Tissuelyzer or equivalent system. The quantitative measurement of the test substances in the samples is performed using calibration curves in the respective matrices. The protein content of the samples is precipitated using acetonitrile or methanol. Thereafter, the samples are separated using HPLC in combination with reversed phase chromatography columns. The HPLC system is coupled to a triple quadrupole mass spectrometer via an electrospray interface. Particularly, HPLC was performed using a C18 column (e.g. Phenomenex Kinetex C18 5 mm 5 μm 2.1×50) and a mixture of 10 mM ammonium acetate pH6.8 and acetonitrile in a gradient with an increasing fraction of organic solvent. The retention time for the compound of example 2 was for example ca. 2.6 min.
Data: Mean concentration of test compound (μg/L of plasma or μg/kg of wet tissue weight), samples with concentrations below the lower limit of quantification (LOQ) are denoted as “<LOQ”, n corresponds to the number of the treated animals

Sprague Dawley rats [2] = assay: Lacrimal gland removal model, corneal nerve density measurement (IVCM); details: rats after lacrimal gland removal; treatment started two weeks post removal, compared to vehicle (FIG. 2)
Experimental: (§1) Sprague Dawley rats were anesthetized by intraperitoneal injection of 75 mg/kg ketamine +7.5 mg/kg xylazine hydrochloride. After removal of the facial hair, a 2 mm incision was carefully made between temporal lid margin and zygomatic arch. Bluntly separating the underlying tissue, exposing the fascia covering the intra-orbital lacrimal gland, avoiding the nerves and blood vessels. A small incision was made on the fascia, and the intra-orbital gland was gently pulled out and excised. The incision was sutured with a 8-0 polysorb suture and the skin was closed with a 5-0 polysorb suture (Ethilon; Ethicon Inc, Somerville, N.J.). A 3 mm incision was made just below the earlobe, and the extra-orbital lacrimal gland was pulled out and excised along its stem. This incision was closed in a manner similar as described above.
Nerve Density Measurement: […]

Sprague Dawley rats [3] = assay: Lacrimal gland removal model with pain behavior read out (wipe test); details: rats after lacrimal gland removal; after two and four weeks of treatment, compared to vehicle (FIG. 1)
Experimental: Lacrimal Gland Removal Model with Pain Behavior Read Out
as §1
Acclimate rat in a quiet, clean, clear cage for 15 minutes. Gently hold head of rat, add one drop of 5M NaCl in the rat right eye, and start count wipes (front limb wipe across the face) for 30 seconds. Repeat wipe test in left eye. Wash each eye with 10 ml NS. […] The number of eye wipes over a period of thirty seconds was determined for each animal and averaged at various timepoints. […]

Mean concentration of test compound, Plasma [1] [ng/mL]	Mean concentration of test compound, Back of the eye [1] [µg/kg]	Mean concentration of test compound, Cornea [1] [µg/kg]	Mean concentration of test compound, Lacrimal gland and duct [1] [µg/kg]	Mean concentration of test compound, Lens and humor [1] [µg/kg]	SMILES	Corneal nerve density (fold difference from baseline) (Sprague Dawley rats [2])	Eye wipe count (5M NaCl, 30 seconds) (Sprague Dawley rats [3])
2.37	14.5	13.4	33.4	<4.0	N#Cc1cnn(-c2ccc(NC(=O)Cc3ccccc3Cl)cc2S(N)(=O)=O)c1 [2-(2-Chlorophenyl)-N-[4-(4-cyano-1H-pyrazol-1-yl)-3-sulfamoylphenyl]acetamide, reference compound]	–	–
0.4	13.8	44.9	17.4	1.8	CC(=O)N(c1ccc(F)cc1)c1cc(NC(=O)Cc2cccc(F)c2Cl)ccn1 [Example 2, N-{4-[2-(2-chloro-3-fluorophenyl)acetamido]pyridin-2-yl}-N-(4-fluorophenyl)acetamide]	a decline in nerve density could be observed	no apparent further increase in wipe count
